# Experimental data: patent US20240360146A1, “BRUTON'S TYROSINE KINASE AND MUTANT DEGRADER, COMPOSITION AND APPLICATION THEREOF” (HANGZHOU HEALZEN THERAPEUTICS CO., LTD., priority 2021, published 2024)
# Biological target: T1, BTK (Homo sapiens, UniProt Q06187)
# T1 construct: endogenous in cells; host or cells: Mino cells
# Experiment: BTK degradation activity test in Mino cells
# Assay type: cell-based
# Details: 16 h incubation, Western blot or Elisa
# Outline: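 DC50 derived by curve fitting of BTK degradation rates versus untreated control across compound concentrations. Mino cells were exposed for 16 h; BTK levels in lysates, normalised via BCA protein, measured by Western blot or ELISA.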
# T1 sequence (Q06187 whole entry): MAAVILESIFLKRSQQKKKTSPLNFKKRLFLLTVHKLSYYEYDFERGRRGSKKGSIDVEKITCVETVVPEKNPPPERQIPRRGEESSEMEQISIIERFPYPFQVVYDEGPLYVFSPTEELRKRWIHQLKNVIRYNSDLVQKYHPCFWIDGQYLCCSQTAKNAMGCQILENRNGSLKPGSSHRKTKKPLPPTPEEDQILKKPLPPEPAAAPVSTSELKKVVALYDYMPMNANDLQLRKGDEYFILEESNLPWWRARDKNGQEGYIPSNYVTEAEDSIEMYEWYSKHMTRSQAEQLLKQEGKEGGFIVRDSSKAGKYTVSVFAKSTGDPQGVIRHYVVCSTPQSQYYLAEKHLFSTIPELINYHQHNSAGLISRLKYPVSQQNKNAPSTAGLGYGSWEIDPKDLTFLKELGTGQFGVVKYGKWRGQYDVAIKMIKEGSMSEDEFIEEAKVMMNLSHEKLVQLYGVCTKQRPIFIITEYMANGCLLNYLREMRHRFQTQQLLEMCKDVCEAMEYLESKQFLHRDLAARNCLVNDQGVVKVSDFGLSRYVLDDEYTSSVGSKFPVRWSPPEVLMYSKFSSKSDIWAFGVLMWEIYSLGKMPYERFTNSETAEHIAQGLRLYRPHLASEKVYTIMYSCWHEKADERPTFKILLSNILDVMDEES
row,DC50,SMILES
1,< 1 nM,"CN1CCN([C@@H]2CCCN(c3nnc(C(N)=O)c(Nc4ccc(N5CCN(C[C@@H]6CCN(c7ccc(C(=O)N[C@H]8CCC(=O)NC8=O)nc7)C6)CC5)c(F)c4)n3)C2)C1=O [Compound 154, 5-((4-(4-(((S)-1-(6-(((S)-2,6-dioxopiperidin-3-yl)carbamoyl)pyridin-3-yl)pyrrolidin-3-yl)methyl)piperazin-1-yl)-3-fluorophenyl)amino)-3-((R)-3-(3-methyl-2-oxoimidazolin-1-yl)piperidin-1-yl)-1,2,4-triazin-6-carboxamide]"
2,< 1 nM,"CN1CCN([C@@H]2CCCN(c3nnc(C(N)=O)c(Nc4ccc(C5CCN(C[C@@H]6CCN(c7cc8c(cc7F)C(=O)N(C7CCC(=O)NC7=O)C8=O)C6)CC5)cc4)n3)C2)C1=O (stereo partly drawn) [Compound 155, 5-((4-(1-(((3S)-1-(2-(2,6-dioxopiperidin-3-yl)-6-fluoro-1,3-dioxoisoindolin-5-yl)pyrrolidin-3-yl)methyl)piperidin-4-yl)phenyl)amino)-3-((R)-3-(3-methyl-2-oxoimidazolin-1-yl)piperidin-1-yl)-1,2,4-triazin-6-carboxamide]"
3,< 1 nM,"CN1CCN([C@@H]2CCCN(c3nnc(C(N)=O)c(Nc4ccc(C5CCN(C[C@H]6CCN(c7cc8c(cc7F)C(=O)N(C7CCC(=O)NC7=O)C8=O)C6)CC5)cc4)n3)C2)C1=O (stereo partly drawn) [Compound 156, 5-((4-(1-(((3R)-1-(2-(2,6-dioxopiperidin-3-yl)-6-fluoro-1,3-dioxoisoindolin-5-yl)pyrrolidin-3-yl)methyl)piperidin-4-yl)phenyl)amino)-3-((R)-3-(3-methyl-2-oxoimidazolin-1-yl)piperidin-1-yl)-1,2,4-triazin-6-carboxamide]"
4,< 1 nM,"CN1CCN([C@@H]2CCCN(c3nnc(C(N)=O)c(Nc4ccc(C5CCN(C[C@@H]6CCN(c7ccc8c(c7)C(=O)N(C7CCC(=O)NC7=O)C8=O)C6)CC5)c(F)c4)n3)C2)C1=O (stereo partly drawn) [Compound 157, 5-((4-(1-(((3S)-1-(2-(2,6-dioxopiperidin-3-yl)-1,3-dioxoisoindolin-5-yl)pyrrolidin-3-yl)methyl)piperidin-4-yl)-3-fluorophenyl)amino)-3-((R)-3-(3-methyl-2-oxoimidazolin-1-yl)piperidin-1-yl)-1,2,4-triazin-6-carboxamide]"
5,< 1 nM,"CN1CCN([C@@H]2CCCN(c3nnc(C(N)=O)c(Nc4ccc(C5CCN(C[C@H]6CCN(c7ccc8c(c7)C(=O)N(C7CCC(=O)NC7=O)C8=O)C6)CC5)c(F)c4)n3)C2)C1=O (stereo partly drawn) [Compound 158, 5-((4-(1-(((3R)-1-(2-(2,6-dioxopiperidin-3-yl)-1,3-dioxoisoindolin-5-yl)pyrrolidin-3-yl)methyl)piperidin-4-yl)-3-fluorophenyl)amino)-3-((R)-3-(3-methyl-2-oxoimidazolin-1-yl)piperidin-1-yl)-1,2,4-triazin-6-carboxamide]"
6,< 1 nM,"CN1CCN([C@@H]2CCCN(c3nnc(C(N)=O)c(Nc4ccc(N5CCN(C[C@@H]6CCN(c7ccc8c(c7)C(=O)N(C7CCC(=O)NC7=O)C8=O)C6)CC5)c(Cl)c4)n3)C2)C1=O (stereo partly drawn) [Compound 159, 5-((3-chloro-4-(4-(((3S)-1-(2-(2,6-dioxopiperidin-3-yl)-1,3-dioxoisoindolin-5-yl)pyrrolidin-3-yl)methyl)piperazin-1-yl)phenyl)amino)-3-((R)-3-(3-methyl-2-oxoimidazolidin-1-yl)piperidin-1-yl)-1,2,4-triazin-6-carboxamide]"
7,< 1 nM,"CN1CCN([C@@H]2CCCN(c3nnc(C(N)=O)c(Nc4ccc(N5CCN(C[C@H]6CCN(c7ccc8c(c7)C(=O)N(C7CCC(=O)NC7=O)C8=O)C6)CC5)c(Cl)c4)n3)C2)C1=O (stereo partly drawn) [Compound 160, 5-((3-chloro-4-(4-(((3R)-1-(2-(2,6-dioxopiperidin-3-yl)-1,3-dioxoisoindolin-5-yl)pyrrolidin-3-yl)methyl)piperazin-1-yl)phenyl)amino)-3-((R)-3-(3-methyl-2-oxoimidazolidin-1-yl)piperidin-1-yl)-1,2,4-triazin-6-carboxamide]"
8,< 1 nM,"CN1CCN([C@@H]2CCCN(c3nnc(C(N)=O)c(Nc4ccc(N5CCN(CC6CCN(c7ccc8c(c7)C(=O)N(C7CCC(=O)NC7=O)C8=O)CC6)CC5)c(Cl)c4)n3)C2)C1=O (stereo partly drawn) [Compound 164, 5-((3-chloro-4-(4-((1-(2-(2,6-dioxopiperidin-3-yl)-1,3-dioxoisoindolin-5-yl)piperidin-4-yl)methyl)piperazin-1-yl)phenyl)amino)-3-((R)-3-(3-methyl-2-oxoimidazolidin-1-yl)piperidin-1-yl)-1,2,4-triazin-6-carboxamide]"
9,< 1 nM,"CN1CCN([C@@H]2CCCN(c3nnc(C(N)=O)c(Nc4ccc(N5CCN(CC6CCN(c7ccc8c(c7)C(=O)N(C7CCC(=O)NC7=O)C8=O)CC6)CC5)c(F)c4F)n3)C2)C1=O (stereo partly drawn) [Compound 165, 5-((4-(4-((1-(2-(2,6-dioxopiperidin-3-yl)-1,3-dioxoisoindolin-5-yl)piperidin-4-yl)methyl)piperazin-1-yl)-2,3-difluorophenyl)amino)-3-((R)-3-(3-methyl-2-oxoimidazolidin-1-yl)piperidin-1-yl)-1,2,4-triazin-6-carboxamide]"
10,< 1 nM,"CN1CCN([C@@H]2CCCN(c3nnc(C(N)=O)c(Nc4ccc(N5CCN(CC6CCN(c7cc8c(cc7F)C(=O)N(C7CCC(=O)NC7=O)C8=O)C6)CC5)c(F)c4)n3)C2)C1=O (stereo partly drawn) [Compound 169, 5-((4-(4-((1-(2-(2,6-dioxopiperidin-3-yl)-6-fluoro-1,3-dioxoisoindolin-5-yl)pyrrolidin-3-yl)methyl)piperazin-1-yl)-3-fluorophenyl)amino)-3-((R)-3-(3-methyl-2-oxoimidazolidin-1-yl)piperidin-1-yl)-1,2,4-triazin-6-carboxamide]"
11,< 1 nM,"CN1CCN([C@@H]2CCCN(c3nnc(C(N)=O)c(Nc4ccc(N5CCN(CC6CCN(c7ccc(C(=O)NC8CCC(=O)NC8=O)cn7)CC6)CC5)c(F)c4)n3)C2)C1=O (stereo partly drawn) [Compound 175, 5-((4-(4-((1-(5-((2,6-dioxopiperidin-3-yl)carbamoyl)pyridin-2-yl)piperidin-4-yl)methyl)piperazin-1-yl)-3-fluorophenyl)amino)-3-((R)-3-(3-methyl-2-oxoimidazolidin-1-yl)piperidin-1-yl)-1,2,4-triazin-6-carboxamide]"
12,< 1 nM,"CN1CCN([C@@H]2CCCN(c3nnc(C(N)=O)c(Nc4ccc(N5CCN(CC6CCN(c7ccc(C(=O)NC8CCC(=O)NC8=O)c8c7OCO8)C6)CC5)c(F)c4)n3)C2)C1=O (stereo partly drawn) [Compound 176, 5-((4-(4-((1-(7-((2,6-dioxopiperidin-3-yl)carbamoyl)benzo[d][1,3]dioxacyclopent-4-yl)pyrrolidin-3-yl)methyl)piperazin-1-yl)-3-fluorophenyl)amino)-3-((R)-3-(3-methyl-2-oxoimidazolidin-1-yl)piperidin-1-yl)-1,2,4-triazin-6-carboxamide]"
13,< 1 nM,"CN1CCN([C@@H]2CCCN(c3nnc(C(N)=O)c(Nc4ccc(N5CCN(CC6CCN(c7ccc(C(=O)NC8CCC(=O)NC8=O)c8[nH]cnc78)C6)CC5)c(F)c4)n3)C2)C1=O (stereo partly drawn) [Compound 178, 4-(3-((4-(4-((6-carbamoyl-3-((R)-3-(3-methyl-2-oxoimidazolidin-1-yl)piperidin-1-yl)-1,2,4-triazin-5-yl)amino)-2-fluorophenyl)piperazin-1-yl)methyl)pyrrolidin-1-yl)-N-(2,6-dioxopiperidin-3-yl)-1Hbenzimidazol-7-carboxamide]"
